By IC50 is commonly meant the point on the concentration scale where inhibition reaches its midpoint. The low end stands for higher potency, the high end for lower potency.

This note sets out measurements from patent US11447466B2, “Substituted indole compounds useful as inhibitors of TLR7/8/9” (BRISTOL-MYERS SQUIBB COMPANY, priority 2017, dated 2022).

Common to all, as to type: cell-based
Assay [1] deals with T1, human TLR7 (Homo sapiens, UniProt Q9NYK1).
T1 construct: host or cells: HEK-Blue cells
T1 sequence (Q9NYK1 27-1049): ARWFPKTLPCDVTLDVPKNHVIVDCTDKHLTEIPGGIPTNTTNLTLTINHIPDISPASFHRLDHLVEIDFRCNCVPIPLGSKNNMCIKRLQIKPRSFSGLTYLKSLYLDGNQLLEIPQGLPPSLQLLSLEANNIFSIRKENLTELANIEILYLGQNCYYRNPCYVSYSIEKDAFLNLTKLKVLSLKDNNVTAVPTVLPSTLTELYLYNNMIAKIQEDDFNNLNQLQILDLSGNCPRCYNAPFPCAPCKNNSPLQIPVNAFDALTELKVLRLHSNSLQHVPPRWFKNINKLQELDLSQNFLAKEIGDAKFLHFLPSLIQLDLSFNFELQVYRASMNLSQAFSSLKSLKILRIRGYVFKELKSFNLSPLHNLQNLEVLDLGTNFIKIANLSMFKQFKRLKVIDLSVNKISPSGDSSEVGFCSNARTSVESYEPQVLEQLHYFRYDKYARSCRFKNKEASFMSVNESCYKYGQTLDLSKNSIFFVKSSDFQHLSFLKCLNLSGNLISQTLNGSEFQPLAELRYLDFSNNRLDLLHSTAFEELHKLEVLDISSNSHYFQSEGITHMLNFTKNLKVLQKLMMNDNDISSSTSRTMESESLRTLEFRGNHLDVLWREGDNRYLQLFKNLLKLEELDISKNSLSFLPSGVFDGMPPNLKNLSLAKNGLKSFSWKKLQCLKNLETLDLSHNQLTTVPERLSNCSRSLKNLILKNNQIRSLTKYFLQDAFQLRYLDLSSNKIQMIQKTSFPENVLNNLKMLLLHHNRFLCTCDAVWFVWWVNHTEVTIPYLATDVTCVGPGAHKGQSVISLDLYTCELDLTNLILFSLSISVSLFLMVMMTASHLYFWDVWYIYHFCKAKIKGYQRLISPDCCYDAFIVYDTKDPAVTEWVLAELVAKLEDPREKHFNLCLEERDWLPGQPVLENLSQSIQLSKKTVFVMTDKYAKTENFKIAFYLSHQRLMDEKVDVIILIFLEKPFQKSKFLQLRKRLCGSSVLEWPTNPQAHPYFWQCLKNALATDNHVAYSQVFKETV
The assay can be described thus: TLR7 inhibition reporter assay (HEK-Blue SEAP reporter, gardiquimod stimulation). The note with it: HEK-Blue cells overexpressing human TLR7, SEAP reporter, gardiquimod 7.5 μM, 22 hour incubation. The essentials: (§1)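 Human TLR7/8/9 HEK-Blue reporter lines; dose range 0.05 nM–50 μM; 30 min RT preincubation; stimulus gardiquimod 7.5 μM / R848 15.9 μM / ODN2006 5 nM respectively; 22 h, 37 °C; SEAP detected colorimetrically.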

For assay [2], the target named is T2, human TLR8 (Homo sapiens, UniProt Q9NR97).
T2 construct: host or cells: HEK-Blue cells
T2 sequence (Q9NR97 27-1041): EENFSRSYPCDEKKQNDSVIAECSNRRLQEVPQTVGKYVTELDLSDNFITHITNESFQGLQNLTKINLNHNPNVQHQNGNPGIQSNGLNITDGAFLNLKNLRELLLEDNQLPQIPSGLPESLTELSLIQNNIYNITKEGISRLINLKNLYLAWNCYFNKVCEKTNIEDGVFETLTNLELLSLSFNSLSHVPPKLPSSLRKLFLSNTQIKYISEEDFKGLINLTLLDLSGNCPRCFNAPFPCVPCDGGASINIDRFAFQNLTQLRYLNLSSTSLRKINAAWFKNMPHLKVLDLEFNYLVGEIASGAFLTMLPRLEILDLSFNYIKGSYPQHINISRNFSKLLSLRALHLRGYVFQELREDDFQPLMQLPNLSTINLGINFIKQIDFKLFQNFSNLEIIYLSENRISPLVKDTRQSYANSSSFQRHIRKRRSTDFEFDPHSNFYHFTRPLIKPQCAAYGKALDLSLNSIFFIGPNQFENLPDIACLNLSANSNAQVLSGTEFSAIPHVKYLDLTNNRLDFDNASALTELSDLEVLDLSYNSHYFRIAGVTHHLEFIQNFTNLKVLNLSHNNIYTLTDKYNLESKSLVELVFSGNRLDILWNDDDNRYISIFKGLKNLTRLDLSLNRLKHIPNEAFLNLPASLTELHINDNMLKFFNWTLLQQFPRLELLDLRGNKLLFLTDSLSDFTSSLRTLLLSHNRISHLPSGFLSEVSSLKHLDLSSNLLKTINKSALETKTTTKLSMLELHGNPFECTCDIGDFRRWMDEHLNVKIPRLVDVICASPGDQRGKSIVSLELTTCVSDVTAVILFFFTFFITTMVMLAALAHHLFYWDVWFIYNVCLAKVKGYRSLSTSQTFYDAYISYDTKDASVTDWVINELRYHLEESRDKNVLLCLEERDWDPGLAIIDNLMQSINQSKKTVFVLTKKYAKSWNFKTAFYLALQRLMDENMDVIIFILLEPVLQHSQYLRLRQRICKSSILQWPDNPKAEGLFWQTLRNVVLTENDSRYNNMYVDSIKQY
The assay can be described thus: TLR8 inhibition reporter assay (HEK-Blue SEAP reporter, R848 stimulation). The note with it: HEK-Blue cells overexpressing human TLR8, SEAP reporter, R848 15.9 μM, 22 hour incubation. The essentials: as §1
(In general: A reporter such as luciferase makes a cellular process visible.)

In assay [3] the target is T3, human TLR9 (Homo sapiens, UniProt Q9NR96).
T3 construct: host or cells: HEK-Blue cells
T3 sequence (Q9NR96 26-1032): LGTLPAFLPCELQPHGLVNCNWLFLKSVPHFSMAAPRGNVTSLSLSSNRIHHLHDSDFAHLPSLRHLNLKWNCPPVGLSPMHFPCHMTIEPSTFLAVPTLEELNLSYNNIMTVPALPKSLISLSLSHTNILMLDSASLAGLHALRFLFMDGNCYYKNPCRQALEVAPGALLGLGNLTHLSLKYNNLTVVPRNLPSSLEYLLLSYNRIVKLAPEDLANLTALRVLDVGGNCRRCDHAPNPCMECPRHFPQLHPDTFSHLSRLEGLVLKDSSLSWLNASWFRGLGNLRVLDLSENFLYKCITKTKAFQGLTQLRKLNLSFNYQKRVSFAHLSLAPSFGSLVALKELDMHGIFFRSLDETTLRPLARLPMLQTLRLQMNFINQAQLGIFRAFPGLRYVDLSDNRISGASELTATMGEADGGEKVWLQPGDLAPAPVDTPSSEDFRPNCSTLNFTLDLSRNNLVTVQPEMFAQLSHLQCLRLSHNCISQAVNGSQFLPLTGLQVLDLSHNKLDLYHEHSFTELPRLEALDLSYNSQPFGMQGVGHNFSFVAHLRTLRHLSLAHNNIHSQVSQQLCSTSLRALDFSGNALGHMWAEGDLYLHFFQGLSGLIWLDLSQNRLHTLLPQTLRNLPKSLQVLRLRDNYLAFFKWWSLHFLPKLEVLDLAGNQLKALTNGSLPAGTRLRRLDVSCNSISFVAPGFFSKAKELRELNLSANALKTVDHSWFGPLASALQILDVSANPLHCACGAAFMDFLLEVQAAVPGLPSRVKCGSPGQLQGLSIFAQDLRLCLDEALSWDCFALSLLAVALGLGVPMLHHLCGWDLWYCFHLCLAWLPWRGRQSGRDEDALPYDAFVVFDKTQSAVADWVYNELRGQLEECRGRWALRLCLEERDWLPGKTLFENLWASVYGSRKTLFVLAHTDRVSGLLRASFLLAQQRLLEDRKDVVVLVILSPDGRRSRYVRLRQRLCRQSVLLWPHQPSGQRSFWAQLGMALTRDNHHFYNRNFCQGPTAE
The assay can be described thus: TLR9 inhibition reporter assay (HEK-Blue SEAP reporter, ODN2006 stimulation). Conditions: HEK-Blue cells overexpressing human TLR9, SEAP reporter, ODN2006 5 nM, 22 hour incubation. The essentials: as §1

As to `CC(C)c1c(-c2cc(-c3ccccc3)c(=O)n(C)c2)[nH]c2ccc(C3CCN(CC(=O)N(C)C)CC3)cc12` [Example 170, 2-(4-(3-isopropyl-2-(1-methyl-6-oxo-5-phenyl-1,6-dihydropyridin-3-yl)-1H-indol-5-yl)piperidin-1-yl)-N,N-dimethylacetamide], the figures for the half-maximal inhibitory concentration (IC50) in assay [1], in assay [2] and in assay [3] were 19.8 nM, 14.4 nM and 2080 nM, respectively.
`Cc1cc(-c2[nH]c3ccc(C4CCN(C5COC5)CC4)cc3c2C(C)C)cn(C)c1=O` [Example 171, 5-(3-isopropyl-5-(1-(oxetan-3-yl)piperidin-4-yl)-1H-indol-2-yl)-1,3-dimethylpyridin-2(1H)-one]: the figures for the half-inhibitory concentration (IC50) in assay [1], in assay [2] and in assay [3] were 5.1 nM, 10.4 nM and 25200 nM, respectively.
With `COc1cc(-c2[nH]c3ccc(C4CCN(C(=O)CN(C)C)CC4)cc3c2C(C)C)cn(C)c1=O` [Example 286, 5-(5-(1-(dimethylglycyl)piperidin-4-yl)-3-isopropyl-1H-indol-2-yl)-3-methoxy-1-methylpyridin-2(1H)-one], the IC50 turned out to be 5 nM in assay [1], 5.6 nM in assay [2] and 289 nM in assay [3].
